{"source": "patent US4992448A", "about": "“Benzocycloalkylaminopyridinamines and related compounds as topical antiinflammatory agents for the treatment of skin disorders” (Hoechst-Roussel Pharmaceuticals Inc., priority 1989, dated 1991)", "key": {"[1]": {"system": "Phospholipase A2 -induced paw edema", "assay": "Phospholipase A2-induced Paw Edema (PIPE)", "format": "in vivo, male Wistar rats", "details": "for PIPE (0.1 M), difference in edema vs. control: 0.1 M test compound injected with PLA2 (3 units/paw), subplantar, rat left hind paw, two hours post administration", "experimental": "Phospholipase A2 -induced Paw Edema (PIPE) A2 -induced paw edema in male Wistar rats (100-125 g) was measured. PLA2 (3 units/paw) alone or with 0.1 M of the test compound was injected in the subplantar region of the rat left hind paw. Immediately subsequent to the injection and at two hours post administration the paw was immersed in a mercury bath, and paw displacement was measured on a recorder via a transducer. […] See Giessler, A. J. et. al., Agents and Actions, Vol. 10, Trends in Inflammation Research (1981), p. 195."}, "[2]": {"molecular_target": "porcine pancreatic PLA2 (Sus scrofa, UniProt P00592)", "sequence (P00592 23-146)": "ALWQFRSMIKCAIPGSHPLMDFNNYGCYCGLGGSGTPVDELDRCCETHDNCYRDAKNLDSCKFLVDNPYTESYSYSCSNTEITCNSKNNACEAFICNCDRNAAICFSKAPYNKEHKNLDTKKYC", "assay": "In Vitro Phospholipase A2 Assay (PLA2)", "format": "biochemical", "details": "0.01 M test compound; porcine pancreatic PLA2 (3.2 units), pH 8.0, 37° C.", "experimental": "In Vitro Phospholipase A2 Assay (PLA2) The ability of a compound to modulate PLA2 activity (clevage of ^14 -dipalmitoyl phosphotidylcholine at the 2-position to ^14 C-palmitic acid) was quantitated in this assay. […] The reaction was run at 37° C. in a shaking incubator. The reaction was quenched and an internal standard was added in order to determine sample recovery. The samples were loaded onto D18 columns, eluted with ethanol, and the radioactivity was then measured."}, "[3]": {"system": "ear edema induced by topical application of TPA", "assay": "TPA-Induced Ear Edema (TPAEE)", "format": "in vivo, Female Swiss WEbster mice", "details": "for TPAEE (10 μg): 10 μg/ear test compound topical, TPA 10 μg/ear, ear punch weight after five hours", "experimental": "TPA-Induced Ear Edema (TPAEE) The purpose of this assay was to determine the ability of a topically-applied compound to prevent ear edema induced by topical application of TPA (phorbol 12/myristate acetate). Female Swiss WEbster mice topically received TPA (10μg/ear) on the right ear and vehicle on the left ear. The test compound (10μg/ear) was applied to both ears. After five hours, the animals were sacrificed and an ear punch (4 mm) was taken from each ear. The difference in right and left ear punch weights for each animal was determined to uses activity. […] See Yound, J. M. et. al., J. Invest."}}}
{"smiles": "Nc1cnccc1N1CCc2ccccc21", "note": "[1-(3-Amino-4-pyridinyl)-2,3-dihydro-1H-indole]", "values": [{"measurement": "PIPE (0.1 M), difference in edema vs. control", "setting": "[1]", "value": -34, "unit": "%"}, {"measurement": "inhibition at 10000 µM", "setting": "[2]", "value": 42, "unit": "%"}, {"measurement": "TPAEE (10 μg)", "setting": "[3]", "value": -74, "unit": "%"}]}
{"smiles": "C[C@]12CCC(=O)C=C1CC[C@@H]1[C@@H]2[C@@H](O)C[C@@]2(C)[C@H]1CC[C@]2(O)C(=O)CO", "note": "[hydrocortisone, reference compound]", "values": [{"measurement": "ED50 (PIPE standard)", "setting": "[1]; standard, PLA2-induced rat paw edema", "value": 0.46, "unit": "M"}, {"measurement": "ED50 (TPAEE standard)", "setting": "[3]; standard, TPA-induced mouse ear edema, topical", "value": 47, "unit": "μg/ear"}]}
{"smiles": "Nc1cc[n+]([O-])cc1N1CCc2ccccc2C1", "values": [{"measurement": "PIPE (0.1 M), difference in edema vs. control", "setting": "[1]", "value": -42, "unit": "%"}, {"measurement": "inhibition at 10000 µM", "setting": "[2]", "value": 59, "unit": "%"}, {"measurement": "TPAEE (10 μg)", "setting": "[3]", "value": -45, "unit": "%"}]}
{"smiles": "Nc1ccncc1N1CCc2ccccc21", "note": "[1-(4-Amino-3-pyridinyl)-2,3-dihydro-1H-indole]", "values": [{"measurement": "PIPE (0.1 M), difference in edema vs. control", "setting": "[1]", "value": -33, "unit": "%"}, {"measurement": "inhibition at 10000 µM", "setting": "[2]", "value": 85, "unit": "%"}, {"measurement": "TPAEE (10 μg)", "setting": "[3]", "value": -35, "unit": "%"}]}
